Patent US10774092B2 (SALK INSTITUTE FOR BIOLOGICAL STUDIES, priority 2014, dated 2020)
Structures can show the parent of a compound that is named as a salt.

target: ULK1; experiment: ULK1 inhibition assay (Table 1); format: biochemical; conditions: * = tested as a mixture of regioisomers

`O=c1[nH]c2ccc(Nc3ncc(Br)c(Nc4ccc5[nH]c(=O)[nH]c5c4)n3)cc2[nH]1` [Example 233, 5,5′-((5-bromopyrimidine-2,4-diyl)bis(azanediyl))bis(1,3-dihydro-2H-benzoimidazol-2-one)] and `COc1cc(Nc2ncc(Br)c(Nc3ccccc3)n2)cc(OC)c1OC` [Example 293, 5-bromo-N4-phenyl-N2-(3,4,5-trimethoxyphenyl)pyrimidine-2,4-diamine] cannot be ordered by IC50: under 200 nM for the first, under 200 nM for the second.

`COc1cc(Nc2ncc(Br)c(Oc3ccccc3C(=O)N3CCCC3)n2)cc(OC)c1OC` [Example 277, (2-((5-bromo-2-((3,4,5-trimethoxyphenyl)amino)pyrimidin-4-yl)oxy)phenyl)(pyrrolidin-1-yl)methanone] and `COc1cc(Nc2ncc(Br)c(Oc3ccccc3C(N)=O)n2)cc(OC)c1OC` [Example 249, 2-((5-bromo-2-((3,4,5-trimethoxyphenyl)amino)pyrimidin-4-yl)oxy)benzamide] cannot be ordered by IC50: under 200 nM for the first, under 200 nM for the second.

First: FC(F)(F)c1cnc(Nc2ccon2)nc1NC1CC1 [Example 214a, N4-cyclopropyl-N2-(isoxazol-3-yl)-5-(trifluoromethyl)pyrimidine-2,4-diamine]
Second: FC(F)(F)c1cnc(Nc2cccnc2)nc1NC1CC1 [Example 196, N4-cyclopropyl-N2-(pyridin-3-yl)-5-(trifluoromethyl) pyrimidine-2,4-diamine]
The IC50 of the first is lower: 200 to 2000 nM for the first, over 2000 nM for the second.

`CN(C)c1nc(Nc2ccc3c(c2)CCC(=O)N3)ncc1C(F)(F)F` [Example 220b, 6-((4-(dimethylamino)-5-(trifluoromethyl)pyrimidin-2-yl)amino)-3,4-dihydroquinolin-2(1H)-one] and `CC(Cl)CNc1nc(Nc2ccc3c(c2)CCC(=O)N3)ncc1C(F)(F)F` (centres unmarked) [Example 183b, 6-((4-((2-chloropropyl)amino)-5-(trifluoromethyl)pyrimidin-2-yl)amino)-3,4-dihydroquinolin-2(1H)-one] cannot be ordered by IC50: under 200 nM for the first, under 200 nM for the second.

Going from `COc1cc(Nc2ncc(Br)c(Oc3ccccc3-c3nc(C)co3)n2)cc(OC)c1OC` [Example 290, 5-bromo-4-(2-(4-methyloxazol-2-yl)phenoxy)-N-(3,4,5-trimethoxyphenyl)pyrimidin-2-amine] to `COc1cc(Nc2ncc(Br)c(Oc3ccccc3N)n2)cc(OC)c1OC` [Example 254b, 4-(2-aminophenoxy)-5-bromo-N-(3,4,5-trimethoxyphenyl)pyrimidin-2-amine], the IC50 falls from over 2000 nM to under 200 nM.

First: CN(c1ccccc1)c1ncc(C(F)(F)F)c(Nc2ccc3c(c2)CCC(=O)N3)n1 [Example 184b, 6-((2-(methyl(phenyl)amino)-5-(trifluoromethyl)pyrimidin-4-yl)amino)-3,4-dihydroquinolin-2(1H)-one]
Second: O=C1CCc2cc(Nc3nc(Oc4ccccc4)ncc3C(F)(F)F)ccc2N1 [Example 300b, 6-((2-phenoxy-5-(trifluoromethyl)pyrimidin-4-yl)amino)-3,4-dihydroquinolin-2(1H)-one]
The IC50 of the first is lower: under 200 nM for the first, over 2000 nM for the second. The first is the more potent here.

`COCc1ccccc1Oc1nc(Nc2cc(OC)c(OC)c(OC)c2)ncc1Br` [Example 274, 5-bromo-4-(2-(methoxymethyl)phenoxy)-N-(3,4,5-trimethoxyphenyl)pyrimidin-2-amine] and `COc1cc(Nc2ncc(Br)c(Oc3ccccc3C(=O)N(C)C)n2)cc(OC)c1OC` [Example 245, 2-((5-bromo-2-((3,4,5-trimethoxyphenyl)amino)pyrimidin-4-yl)oxy)-N,N-dimethylbenzamide] cannot be ordered by IC50: under 200 nM for the first, under 200 nM for the second.

`c1cc(NC2CC2)nc(Nc2cnc3[nH]ccc3c2)n1` [Example 204, N4-cyclopropyl-N2-(1H-pyrrolo[2,3-b]pyridin-5-yl)pyrimidine-2,4-diamine] and `c1cc(NC2CC2)nc(Nc2ccc3c(c2)OCCO3)n1` [Example 224, N4-cyclopropyl-N2-(2,3-dihydrobenzo[b][1,4]dioxin-6-yl)pyrimidine-2,4-diamine] cannot be ordered by IC50: over 2000 nM for the first, over 2000 nM for the second.

`CNC(=O)c1cccc(Oc2nc(Nc3ccc4c(c3)CCC(=O)N4)ncc2Br)c1` [Example 268, 3-((5-bromo-2-((2-oxo-1,2,3,4-tetrahydroquinolin-6-yl)amino)pyrimidin-4-yl)oxy)-N-methylbenzamide] and `CNC(=O)c1cccc(Oc2nc(Nc3cc(OC)c(OC)c(OC)c3)ncc2Br)c1` [Example 242, 3-((5-bromo-2-((3,4,5-trimethoxyphenyl)amino)pyrimidin-4-yl)oxy)-N-methylbenzamide] fall in the same range of IC50: 200 to 2000 nM for the first, 200 to 2000 nM for the second.

`OC1Nc2ccc(Nc3ncc(C(F)(F)F)c(NC4CC4)n3)cc2O1` (centres unmarked) [Example 208b, 6-((4-(cyclopropylamino)-5-(trifluoromethyl)pyrimidin-2-yl)amino)-2,3-dihydrobenzo[d]oxazol-2-ol] and `O=C1Cc2cc(Nc3ncc(C(F)(F)F)c(NC4CC4)n3)ccc2N1` [Example 240, 5-((4-(cyclopropylamino)-5-(trifluoromethyl)pyrimidin-2-yl)amino)indolin-2-one] cannot be ordered by IC50: under 200 nM for the first, under 200 nM for the second.

First: COc1cc(Nc2ncc(Br)c(Oc3ccccc3NC(=O)C3CC3)n2)cc(OC)c1OC [Example 281, N-(2-((5-bromo-2-((3,4,5-trimethoxyphenyl)amino)pyrimidin-4-yl)oxy)phenyl)cyclopropanecarboxamide]
Second: COc1cc(Nc2ncc(Br)c(Oc3ccccc3C(=O)NC3CC3)n2)cc(OC)c1OC [Example 270, 2-((5-bromo-2-((3,4,5-trimethoxyphenyl)amino)pyrimidin-4-yl)oxy)-N-cyclopropylbenzamide]
The IC50 of the first is lower: under 200 nM for the first, 200 to 2000 nM for the second.

First: O=C1CCc2cc(Nc3ncc(C(F)(F)F)c(OCCNCCO)n3)ccc2N1 [Example 212b, 6-((4-(2-((2-hydroxyethyl)amino)ethoxy)-5-(trifluoromethyl)pyrimidin-2-yl)amino)-3,4-dihydroquinolin-2(1H)-one]
Second: O=C1CCc2cc(Nc3ncc(C(F)(F)F)c(OCCNC(=O)OCc4ccccc4)n3)ccc2N1 [Example 261, Benzyl (2-((2-((2-oxo-1,2,3,4-tetrahydroquinolin-6-yl)amino)-5-(trifluoromethyl)pyrimidin-4-yl)oxy)ethyl)carbamate]
The IC50 of the first is lower: 200 to 2000 nM for the first, over 2000 nM for the second. The first is the more potent here.

First: O=C1CCc2cc(Nc3ncc(C(F)(F)F)c(NC4CNC4)n3)ccc2N1 [Example 198a, 6-((4-(azetidin-3-ylamino)-5-(trifluoromethyl)pyrimidin-2-yl)amino)-3,4-dihydroquinolin-2(1H)-one]
Second: CC(CCl)Nc1nc(Nc2ccc3c(c2)CCC(=O)N3)ncc1C(F)(F)F (centres unmarked) [Example 183c, 6-((4-((1-chloropropan-2-yl)amino)-5-(trifluoromethyl)pyrimidin-2-yl)amino)-3,4-dihydroquinolin-2(1H)-one]
The IC50 of the first is lower: 200 to 2000 nM for the first, over 2000 nM for the second.

`FC(F)(F)c1cnc(Nc2ccc(Nc3ncc(C(F)(F)F)c(NC4CC4)n3)cc2)nc1NC1CC1` [Example 304b, N2,N2′-(1,4-phenylene)bis(N4-cyclopropyl-5-(trifluoromethyl)pyrimidine-2,4-diamine)] and `O=C1CCc2cc(Nc3ncc(C(F)(F)F)c(NC4CN(c5nc(Nc6ccc7c(c6)CCC(=O)N7)ncc5C(F)(F)F)C4)n3)ccc2N1` [Example 198b, 6-((4-(3-((2-((2-oxo-1,2,3,4-tetrahydroquinolin-6-yl)amino)-5-(trifluoromethyl)pyrimidin-4-yl)amino)azetidin-1-yl)-5-(trifluoromethyl)pyrimidin-2-yl)amino)-3,4-dihydroquinolin-2(1H)-one] cannot be ordered by IC50: over 2000 nM for the first, over 2000 nM for the second.

`O=C1NC(=O)c2cc(Nc3ncc(C(F)(F)F)c(NC4CC4)n3)ccc21` [Example 314, 5-((4-(cyclopropylamino)-5-(trifluoromethyl)pyrimidin-2-yl)amino)isoindoline-1,3-dione] and `FC(F)(F)c1cnc(Nc2ccc3c(c2)CCNC3)nc1NC1CC1` [Example 309, N4-cyclopropyl-N2-(1,2,3,4-tetrahydroisoquinolin-6-yl)-5-(trifluoromethyl)pyrimidine-2,4-diamine.HCl] cannot be ordered by IC50: under 200 nM for the first, under 200 nM for the second.

`CNC(=O)CCOc1nc(Nc2cc(OC)c(OC)c(OC)c2)ncc1Br` [Example 316, 3-((5-bromo-2-((3,4,5-trimethoxyphenyl)amino)pyrimidin-4-yl)oxy)-N-methylpropanamide] and `CNC(=O)c1cccc(OC)c1Oc1nc(Nc2cc(OC)c(OC)c(OC)c2)ncc1Br` [Example 252, 2-((5-bromo-2-((3,4,5-trimethoxyphenyl)amino)pyrimidin-4-yl)oxy)-3-methoxy-N-methylbenzamide] cannot be ordered by IC50: under 200 nM for the first, under 200 nM for the second.

`O=[N+]([O-])c1cnc(NC2CC2)nc1NC1CC1` [Example 291b, N2,N4-dicyclopropyl-5-nitropyrimidine-2,4-diamine] and `N#Cc1cnc(NC2CC2)nc1Nc1ccc2c(c1)CCC(=O)N2` [Example 287] cannot be ordered by IC50: over 2000 nM for the first, over 2000 nM for the second.

Compared with `COc1cc(Nc2ncc(Br)c(Nc3ccccc3O)n2)cc(OC)c1OC` [Example 317, 2-((5-bromo-2-((3,4,5-trimethoxyphenyl)amino)pyrimidin-4-yl)amino)phenol], `COc1cc(Nc2ncc(Cl)c(N(C)C(=O)c3ccccc3O)n2)cc(OC)c1OC` [Example 234b, N-(5-chloro-2-((3,4,5-trimethoxyphenyl)amino)pyrimidin-4-yl)-2-hydroxy-N-methylbenzamide] is higher in IC50: under 200 nM for the first, 200 to 2000 nM for the second.

`N=c1ccon1-c1ncc(C(F)(F)F)c(NC2CC2)n1` [Example 214b, N-cyclopropyl-2-(3-iminoisoxazol-2(3H)-yl)-5-(trifluoromethyl)pyrimidin-4-amine] and `Oc1ncc(C(F)(F)F)c(NC2CC2)n1` [Example 189, 4-(cyclopropylamino)-5-(trifluoromethyl)pyrimidin-2-ol] cannot be ordered by IC50: over 2000 nM for the first, over 2000 nM for the second.

Going from `FC(F)(F)c1cnc(Nc2cccc3ncccc23)nc1NC1CC1` [Example 278, N4-cyclopropyl-N2-(quinolin-5-yl)-5-(trifluoromethyl) pyrimidine-2,4-diamine] to `FC(F)(F)c1cnc(Nc2cncnc2)nc1NC1CC1` [Example 203, N4-cyclopropyl-N2-(pyrimidin-5-yl)-5-(trifluoromethyl) pyrimidine-2,4-diamine], the IC50 falls from over 2000 nM to under 200 nM.

`O=C1CCc2cc(Nc3ncc(C(F)(F)F)c(OC4COC4)n3)ccc2N1` [Example 231a, 6-((4-(oxetan-3-yloxy)-5-(trifluoromethyl)pyrimidin-2-yl)amino)-3,4-dihydroquinolin-2(1H)-one] was tested, and the IC50 was under 200 nM.
